In patent US9695155B2, “Herbicidal substituted pyrimidinyloxy benzene compounds” (E. I. DU PONT DE NEMOURS AND COMPANY, priority 2013, dated 2017):

Assays:
[1] = test system: velvetleaf; experiment: Test A preemergence; assay type: in vivo, Abutilon theophrasti
Procedure, shortened: (§1)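 Visual injury scored 0–100 (100 = complete control) against untreated controls about 10 days after treatment in a greenhouse. Test chemicals, formulated with surfactant in non-phytotoxic solvent, were sprayed on soil preemergence or on 2-10 cm, one- to two-leaf plants postemergence.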

[2] = test system: barnyardgrass; experiment: Test A preemergence; assay type: in vivo, Echinochloa crus-galli
Procedure, shortened: as §1

[3] = test system: velvetleaf; experiment: Test A postemergence; assay type: in vivo, Abutilon theophrasti; conditions: 0 to 100 scale where 0 is no effect and 100 is complete control
Procedure, shortened: as §1

[4] = test system: corn; experiment: Test A postemergence; assay type: in vivo, Zea mays; conditions: 0 to 100 scale where 0 is no effect and 100 is complete control
Procedure, shortened: as §1

[5] = test system: barnyardgrass; experiment: Test A postemergence; assay type: in vivo, Echinochloa crus-galli; conditions: 0 to 100 scale where 0 is no effect and 100 is complete control
Procedure, shortened: as §1

[6] = test system: morningglory; experiment: Test A preemergence; assay type: in vivo, Ipomoea spp.
Procedure, shortened: as §1

[7] = test system: large (Lg) crabgrass; experiment: Test A preemergence; assay type: in vivo, Digitaria sanguinalis
Procedure, shortened: as §1

[8] = test system: wheat; experiment: Test A preemergence; assay type: in vivo, Triticum aestivum
Procedure, shortened: as §1

[9] = test system: rice; experiment: Test C flooded paddy test; assay type: in vivo, Oryza sativa; conditions: Flood, scale 0 to 100 (0 no effect, 100 complete control), 13 to 15 days
Excerpt: (§2) At time of treatment, test pots were flooded to 3 cm above the soil surface, treated by application of test compounds directly to the paddy water, and then maintained at that water depth for the duration of the test. Treated plants and controls were maintained in a greenhouse for 13 to 15 days, after which time all species were compared to controls and visually evaluated. […] A dash (-) response means no test result.

[10] = test system: sedge, umbrella; experiment: Test B flooded paddy test; assay type: in vivo, Cyperus difformis; conditions: Flood, 250 g ai/ha; 0 to 100 scale where 0 is no effect and 100 is complete control
Procedure, shortened: (§3)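 Plants at 2-leaf stage; pots flooded to 3 cm above soil and compound applied directly into paddy water, depth held throughout. After 13 to 15 days in greenhouse, visual rating versus controls on 0 (no effect) to 100 (complete control) scale.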

[11] = test system: ducksalad; experiment: Test C flooded paddy test; assay type: in vivo, Heteranthera limosa; conditions: Flood, scale 0 to 100 (0 no effect, 100 complete control), 13 to 15 days
Excerpt: as §2

[12] = test system: morningglory; experiment: Test A postemergence; assay type: in vivo, Ipomoea spp.; conditions: 0 to 100 scale where 0 is no effect and 100 is complete control
Procedure, shortened: as §1

[13] = test system: large (Lg) crabgrass; experiment: Test A postemergence; assay type: in vivo, Digitaria sanguinalis; conditions: 0 to 100 scale where 0 is no effect and 100 is complete control
Procedure, shortened: as §1

[14] = test system: giant foxtail; experiment: Test A preemergence; assay type: in vivo, Setaria faberii
Procedure, shortened: as §1

[15] = test system: sedge, umbrella; experiment: Test C flooded paddy test; assay type: in vivo, Cyperus difformis; conditions: Flood, scale 0 to 100 (0 no effect, 100 complete control), 13 to 15 days
Excerpt: as §2

[16] = test system: giant foxtail; experiment: Test A postemergence; assay type: in vivo, Setaria faberii; conditions: 0 to 100 scale where 0 is no effect and 100 is complete control
Procedure, shortened: as §1

[17] = test system: pigweed; experiment: Test A postemergence; assay type: in vivo, Amaranthus retroflexus; conditions: 0 to 100 scale where 0 is no effect and 100 is complete control
Procedure, shortened: as §1

[18] = test system: corn; experiment: Test A preemergence; assay type: in vivo, Zea mays
Procedure, shortened: as §1

[19] = test system: Heteranthera limosa; experiment: Test B flooded paddy test; assay type: in vivo; conditions: Flood, 250 g ai/ha; 0 to 100 scale where 0 is no effect and 100 is complete control
Procedure, shortened: as §3

[20] = test system: barnyardgrass; experiment: Test C flooded paddy test; assay type: in vivo, Echinochloa crus-galli; conditions: Flood, scale 0 to 100 (0 no effect, 100 complete control), 13 to 15 days
Procedure, shortened: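 Ratings were visual and made relative to untreated controls after 13 to 15 greenhouse days.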

[21] = test system: barnyardgrass; experiment: Test B flooded paddy test; assay type: in vivo, Echinochloa crus-galli; conditions: Flood, 250 g ai/ha; 0 to 100 scale where 0 is no effect and 100 is complete control
Procedure, shortened: as §3

[22] = test system: wheat; experiment: Test A postemergence; assay type: in vivo, Triticum aestivum; conditions: 0 to 100 scale where 0 is no effect and 100 is complete control
Procedure, shortened: as §1

[23] = test system: pigweed; experiment: Test A preemergence; assay type: in vivo, Amaranthus retroflexus
Procedure, shortened: as §1

[24] = test system: rice; experiment: Test B flooded paddy test; assay type: in vivo, Oryza sativa; conditions: Flood, 250 g ai/ha; 0 to 100 scale where 0 is no effect and 100 is complete control
Procedure, shortened: as §3

[25] = 500 g ai/ha, 0 to 100 scale where 0 is no effect and 100 is complete control

`COc1cnc(Oc2ccccc2-n2cc(Br)cn2)nc1` [Compound 234] was tested, and the “Velvetleaf plant response rating (0 to 100 scale)” value ([1]; 125 g ai/ha) was 40, the “Velvetleaf plant response rating” value [1, 25] was 100 and the “Barnyardgrass plant response rating (0 to 100 scale, 0 is no effect, 100 is complete control)” value ([2]; 125 g ai/ha) was 20. For the same molecule, the “Barnyardgrass plant response rating” value [2, 25] was 100, the “Velvetleaf plant response rating” value ([3]; 125 g ai/ha) was 70 and the “Plant response rating, Velvetleaf” value ([3]; 500 g ai/ha) was 100. The “Corn plant response rating” value ([4]; 125 g ai/ha) was 20, the “Plant response rating, Corn” value ([4]; 500 g ai/ha) was 30 and the “Barnyardgrass plant response rating” value ([5]; 125 g ai/ha) was 20. For the same molecule, the “Plant response rating, Barnyardgrass” value ([5]; 500 g ai/ha) was 70, the “Morningglory plant response rating (0 to 100 scale)” value ([6]; 125 g ai/ha) was 0 and the “Morningglory plant response rating” value [6, 25] was 100. For the same molecule, the “Crabgrass, Large plant response rating (0 to 100 scale)” value ([7]; 125 g ai/ha) was 90, the “Crabgrass, Large plant response rating” value [7, 25] was 100 and the “Wheat plant response rating (0 to 100 scale)” value ([8]; 125 g ai/ha) was 0. The “Wheat plant response rating” value [8, 25] was 0, the “Plant response rating, Rice” value ([9]; 31 g ai/ha) was 0 and the “Plant response rating, Rice” value ([9]; 62 g ai/ha) was 0. The “Plant response rating, Rice” value ([9]; 125 g ai/ha) was 0, the “Plant response rating, Rice” value ([9]; 250 g ai/ha) was 0 and the “Plant response rating, Sedge, Umbrella” value [10] was 90. The “Plant response rating, Ducksalad” value ([11]; 31 g ai/ha) was 0, the “Plant response rating, Ducksalad” value ([11]; 62 g ai/ha) was 0 and the “Plant response rating, Ducksalad” value ([11]; 125 g ai/ha) was 0. The “Plant response rating, Ducksalad” value ([11]; 250 g ai/ha) was 30, the “Morningglory plant response rating” value ([12]; 125 g ai/ha) was 40 and the “Plant response rating, Morningglory” value ([12]; 500 g ai/ha) was 60. The “Crabgrass, Large plant response rating” value ([13]; 125 g ai/ha) was 20, the “Plant response rating, Crabgrass, Large” value ([13]; 500 g ai/ha) was 60 and the “Foxtail, Giant plant response rating (0 to 100 scale)” value ([14]; 125 g ai/ha) was 60. The “Foxtail, Giant plant response rating” value [14, 25] was 90, the “Plant response rating, Sedge, Umbrella” value ([15]; 31 g ai/ha) was 0 and the “Plant response rating, Sedge, Umbrella” value ([15]; 62 g ai/ha) was 0. The “Plant response rating, Sedge, Umbrella” value ([15]; 125 g ai/ha) was 0, the “Plant response rating, Sedge, Umbrella” value ([15]; 250 g ai/ha) was 40 and the “Foxtail, Giant plant response rating” value ([16]; 125 g ai/ha) was 30. The “Plant response rating, Foxtail, Giant” value ([16]; 500 g ai/ha) was 70, the “Pigweed plant response rating” value ([17]; 125 g ai/ha) was 100 and the “Plant response rating, Pigweed” value ([17]; 500 g ai/ha) was 100. The “Corn plant response rating (0 to 100 scale)” value ([18]; 125 g ai/ha) was 0, the “Corn plant response rating” value [18, 25] was 90 and the “Plant response rating, Ducksalad” value [19] was 90. For the same molecule, the “Plant response rating, Barnyardgrass” value ([20]; 31 g ai/ha) was 0, the “Plant response rating, Barnyardgrass” value ([20]; 62 g ai/ha) was 0 and the “Plant response rating, Barnyardgrass” value ([20]; 125 g ai/ha) was 0. The “Plant response rating, Barnyardgrass” value ([20]; 250 g ai/ha) was 0, the “Plant response rating, Barnyardgrass” value [21] was 20 and the “Wheat plant response rating” value ([22]; 125 g ai/ha) was 20. The “Plant response rating, Wheat” value ([22]; 500 g ai/ha) was 20, the “Pigweed plant response rating (0 to 100 scale)” value ([23]; 125 g ai/ha) was 90 and the “Pigweed plant response rating” value [23, 25] was 100. The “Plant response rating, Rice” value [24] was 20.
